Patent US20070160501A1, “Device and method for treating a crystal by applying microdrops thereto” (PROTEROS BIOSTRUCTURES GMBH, priority 2003, published 2007)

Tests used:
Human a Thrombin = Human a Thrombin (Homo sapiens, UniProt P00734); assay: Binding of PMSF to a freely mounted thrombin crystal by dripping on microdrops, X-ray crystallographic examination; conditions: 100 mM PMSF in isopropyl alcohol dripped on thrombin crystal; active center around Ser195; FIG. 4
Excerpt: A thrombin crystal was mounted on the free mounting system by means of a loop at a previously determined initial humidity of 93%. Under a microscope, surplus reservoir buffer was cautiously removed from the loop by means of a strip of filter paper. The stability and the consistency of the size of the crystal, respectively, were monitored by means of the video system.
Herein, a highly concentrated PMSF solution in an organic solvent was used.
Subsequently, the crystal was bombarded with individual drops (single shot mode) of the solution. The total volume dripped on approximately corresponded to the volume of the crystal, i.e. about 300 pl. […] Herein, the projection of the surface of the crystal was monitored after each dripping-on and it was waited until the surface remained uniform again before the next drop was applied. The individual parameters of the experiment can be seen in Table 1.
After completion of dripping-on, the crystal was moistened with PFPE oil (perfluoropolyether) and shock-frozen in liquid nitrogen. The X-ray crystallographic data record was recorded on a rotating copper anode. Data processing was conducted by means of the programs XDS and XSCALE, refinement and manual model construction was conducted by means of the programs CNX and O. The statistics of data collection, processing, and refinement are given in Table 2.

human α-thrombin = human α-thrombin (Homo sapiens, UniProt P00734); conditions: stated in brackets without method; inhibitor used with human α-thrombin; cited from earlier work
[1] = cited from earlier work

Row | Compound | binding mode seen in the experimentally determined electron density (Human a Thrombin) | Ki (human α-thrombin) [µM] | stability in an aqueous system [1]
1 | O=S(=O)(F)Cc1ccccc1 [PMSF, Phenylmethylsulfonyl Fluoride] | covalent bond of the PMSF at Ser195 | – | –
2 | Cl.NCCc1ccc(S(=O)(=O)F)cc1 [Pefabloc SC, 4-(2-aminoethyl)-benzenesulfonyl-fluoride-hydrochloride] | – | 6.5 | high stability in an aqueous system
